Laboratory results reported in PubChem BioAssay (NCI).
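Compound exposure: 48 hours, 5 concentrations, 96-well plates. TGI denotes the concentration required for complete inhibition of growth.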

How the values were obtained:
Experiment in all cases: NCI tumour cell line growth inhibition, 48 h
ACHN renal = system: ACHN renal
HCT-15 colon = system: HCT-15 colon
LOX IMVI melanoma = system: LOX IMVI melanoma
MALME-3M melanoma = system: MALME-3M melanoma
MDA-MB-231 breast = system: MDA-MB-231 breast
OVCAR-3 ovarian = system: OVCAR-3 ovarian
SF-295 CNS = system: SF-295 CNS
SNB-19 CNS = system: SNB-19 CNS
U251 CNS = system: U251 CNS
A498 renal = system: A498 renal
MDA-N = system: MDA-N

| Structure (SMILES) | TGI (ACHN renal) | TGI (HCT-15 colon) | TGI (LOX IMVI melanoma) | TGI (MALME-3M melanoma) | TGI (MDA-MB-231 breast) | TGI (OVCAR-3 ovarian) | TGI (SF-295 CNS) | TGI (SNB-19 CNS) | TGI (U251 CNS) | TGI (A498 renal) | TGI (MDA-N) |
| --- | --- | --- | --- | --- | --- | --- | --- | --- | --- | --- | --- |
| Cc1ccc(/C(Cl)=C/C=C(C#N)C#N)cc1 | 5.29 µM | 4.79 µM | 3.82 µM | 16.1 µM | 6.33 µM | 3.91 µM | 26.9 µM | 24 µM | 18.4 µM |  |  |
| O=C1c2ccccc2C(=O)c2c1cc(S(=O)(=O)O)c(O)c2O | > 100 µM | > 100 µM | > 100 µM |  |  | > 100 µM | > 100 µM |  | > 100 µM | > 100 µM |  |
| O=c1cc(N2CCNCC2)nc2ccccn12 | > 100 µM | > 100 µM | > 100 µM | > 100 µM | > 100 µM | > 100 µM | > 100 µM | > 100 µM | > 100 µM | > 100 µM | > 100 µM |
| NCCCCC(NC(=O)C(N)Cc1ccc(O)cn1)C(=O)O (configuration not stated) | > 100 µM | > 100 µM | > 100 µM | > 100 µM | > 100 µM | > 100 µM | > 100 µM | > 100 µM | > 100 µM | > 100 µM | > 100 µM |
| CCOC(=O)N(NC(=O)NC(C)C)c1ccccc1 | > 100 µM | > 100 µM | > 100 µM | > 100 µM | > 100 µM | > 100 µM | > 100 µM | > 100 µM | > 100 µM | > 100 µM | > 100 µM |
| COc1ccc(C[C@@H](CO)NC2=C(C#N)CCC2)cc1 | > 100 µM | > 100 µM | > 100 µM | > 100 µM | > 100 µM | > 100 µM | > 100 µM | > 100 µM | > 100 µM | 97.9 µM | > 100 µM |
| Oc1c2cc(Cl)cc1COCc1cc(Cl)cc(c1O)COCc1cc(Cl)cc(c1O)COC2 | > 100 µM | > 100 µM | > 100 µM |  |  | > 100 µM | > 100 µM | > 100 µM | > 100 µM | > 100 µM |  |
| CC(C)(C)OC(=O)CN1C(=O)CC1CC(=O)c1ccccc1 (configuration not stated) | 41.7 µM | 37.5 µM | 31.3 µM | 31.9 µM | 31.1 µM | 33.5 µM | 73.8 µM | 41.9 µM | 29.4 µM | 64 µM | 42.2 µM |
| COc1ccc(C(=O)c2sc(N(C)C)nc2-c2ccccc2)cc1 | > 100 µM | > 100 µM | > 100 µM | > 100 µM | > 100 µM | 48.6 µM |  | > 100 µM | > 100 µM | 93.1 µM | 53.8 µM |
| Cc1cc2cc3c(cc2c(-c2ccc([N+](=O)[O-])cc2)n1)OCO3 | > 100 µM | > 100 µM | > 100 µM | > 100 µM | 84.4 µM | > 100 µM | > 100 µM | > 100 µM | > 100 µM | > 100 µM | > 100 µM |
| C[C@]12CC[C@H](OC(=O)Cc3ccc(N(CCCl)CCCl)cc3)CC1=CC[C@@H]1[C@@H]2CC[C@]2(C)C(=O)CC[C@@H]12 | > 100 µM | > 100 µM | > 100 µM | > 100 µM | > 100 µM | > 100 µM |  | > 100 µM | > 100 µM | > 100 µM | > 100 µM |
| CC(CCC(=O)O)(c1ccc(O)cc1)c1ccc(O)cc1 | > 100 µM | > 100 µM | > 100 µM | > 100 µM | > 100 µM | > 100 µM | > 100 µM | > 100 µM | > 100 µM | > 100 µM | > 100 µM |
| COC(=O)c1cc(C)ccc1C1CN=NC12Cc1ccc(C)cc1C2=O (configuration not stated) | > 100 µM | > 100 µM | > 100 µM | > 100 µM | > 100 µM | > 100 µM | > 100 µM | > 100 µM | > 100 µM | 91.3 µM | > 100 µM |
| O=P1(O)c2ccccc2CCc2ccccc21 |  | > 100 µM | > 100 µM |  | > 100 µM | > 100 µM | > 100 µM | > 100 µM |  |  | > 100 µM |
| CC(C)(C)C(=O)OCOP(=O)(OCOC(=O)C(C)(C)C)OCC1OC(n2ccc(=O)[nH]c2=O)C(N=[N+]=[N-])C1O (configuration not stated) | 17.8 µM | 10.7 µM | 3.44 µM | 1.57 µM | 21.1 µM | 3.25 µM | 25.4 µM | 25.7 µM | 10.5 µM |  | 15.8 µM |
| O=C(Cn1c2c(c3ccccc31)CCCC2)N1CCCC1 | > 100 µM | > 100 µM | > 100 µM | > 100 µM |  | > 100 µM | > 100 µM | > 100 µM |  | > 100 µM | > 100 µM |
| O=S(=O)(O)C1=C2Sc3ccccc3N=C2c2ccccc2C1 | 25.1 µM | 27.3 µM | 25.5 µM | 30 µM |  | 31.3 µM | 26.7 µM | 51.6 µM | 25.4 µM | 32.8 µM |  |
| [Cl-].[Rh+3].c1cnc2c(c1)ccc1cccnc12.c1cnc2c(c1)ccc1cccnc12.c1cnc2c(c1)ccc1cccnc12 | > 100 µM | > 100 µM | > 100 µM | > 100 µM |  | > 100 µM | > 100 µM |  | > 100 µM |  |  |
| CC(C)(C)/C(=N\Nc1nc2ccccc2[nH]1)c1ccccn1 | > 100 µM | > 100 µM | > 100 µM | 61.5 µM | > 100 µM | 73.3 µM |  | > 100 µM | > 100 µM | > 100 µM | > 100 µM |
| O=C(N/N=C/C=C/c1ccccc1)[C@H](O)[C@@H](O)C(=O)N/N=C/C=C/c1ccccc1 | > 100 µM | > 100 µM | > 100 µM | > 100 µM |  |  | > 100 µM | > 100 µM | > 100 µM | > 100 µM |  |
| Cc1ccc([N+](=O)[O-])cc1S(=O)(=O)Nc1ccc(C2=NN(c3ccc([N+](=O)[O-])cc3[N+](=O)[O-])C(c3cccs3)C2)cc1 (configuration not stated) | 81.6 µM | 32.7 µM | 39.9 µM | 94.7 µM | 50.8 µM | 34.4 µM | > 100 µM | > 100 µM | 72.3 µM |  | 31.4 µM |
| O=c1oc2ccccc2cc1-c1csc(Nc2ccc(F)cc2)n1 | 26.3 µM | 11.2 µM | 14.9 µM |  | 26 µM | 19.6 µM | 10.7 µM | > 37.6 µM | 9.55 µM | 5.09 µM | 16.5 µM |
